Series [1] concerns E58 mesothelioma cells. Nature of the series: MTT cell survival assay, E58 mesothelioma cells. In kind it is cell-based, human. Conditions: for Synergy index CI at ED50, E58 / Synergy index CI at ED75, E58 / Synergy index CI at ED90, E58: named drug combined with DS + Cu. How it is done:
(§1) Separate incubations were performed with pemetrexed, DS/Cu (disulfiram/copper gluconate) and cisplatin for 3 days. Cell survival was determined via an MTT assay.

Series [2] has as its system 2591 mesothelioma cells. Nature of the series: MTT cell survival assay, 2591 mesothelioma cells. Particulars: for IC50: 2591 cells, 3 days incubation, MTT, read-out: IC50s (nM), inhibition of mesothelioma growth, 2591; for Synergy index CI at ED50, 2591 / Synergy index CI at ED75, 2591 / Synergy index CI at ED90, 2591: named drug combined with DS + Cu. In kind it is cell-based, human. How it is done: as §1
On the technique in general: Formazan colour is commonly taken as a measure of viable cells.

Series [3] has as its system MSTO mesothelioma cells. Nature of the series: MTT cell survival assay, MSTO mesothelioma cells. In kind it is cell-based, human. Conditions: for IC50: MSTO cells, 3 days incubation, MTT, read-out: IC50s (nM), inhibition of mesothelioma growth, MSTO; for Synergy index CI at ED50, MSTO / Synergy index CI at ED75, MSTO / Synergy index CI at ED90, MSTO: named drug combined with DS + Cu. How it is done:
as §1

The test system of series [4] is SKOV-3 ovarian cancer cells. The series is described as follows: Cell survival assay, SKOV-3 ovarian cancer cells. Particulars: cisplatin (CDDP) combined with DS + Cu. In kind it is cell-based, human.
Series [5] relates to Ju77 mesothelioma cells. Nature of the series: MTT cell survival assay, Ju77 mesothelioma cells. Conditions: for IC50: Ju77 cells, 3 days incubation, MTT, read-out: IC50s (nM), inhibition of mesothelioma growth, Ju77; for Synergy index CI at ED50, Ju77 / Synergy index CI at ED75, Ju77 / Synergy index CI at ED90, Ju77: named drug combined with DS + Cu. In kind it is cell-based, human. As to the method: as §1

The test system of series [6] is A2780 ovarian cancer cells. The series is described as follows: Cell survival assay, A2780 ovarian cancer cells. In kind it is cell-based, human.
Series [7] concerns S180 ascites tumor cells. Particulars: for Formation of ascites and masses at laparotomy: three weeks after cell injection.
Method: S180 ascites cells were purchased from the Chinese Academy of Sciences Shanghai Cell Bank and cultured in a DMEM medium containing 10% fetal calf serum supplemented with 10 mg/ml streptomycin and 2 mmol/L L-glutamine at 37° C. under a 5% CO2 atmosphere.
S-180 cells were injected at a rate of 2.5×10^6/animal into the abdominal cavity of male Kunming mice and the animals were randomly divided into two groups (8 animals/group). […] Drug administration was performed three times per week. The mice were weighed three times per week. Once the experiment was complete, the animals were sacrificed via cervical dislocation. The abdominal cavities of all mice were opened to observe and assess ascites formation and abdominal wall tumors.
The conditions of series [8]: oral dose of 500 mg; cited from earlier work.
Series [9] relates to SKVO-3 ovarian cancer cells. The series is described as follows: Peritoneal ovarian cancer model in CD1 nude mice. In kind it is in vivo, mouse.
Method: (§2) MSTO mesothelioma cells and SKVO-3 ovarian cancer cells were cultured in a DMEM medium containing 10% fetal calf serum supplemented with 10 mg/ml streptomycin and 2 mmol/L L-glutamine at 37° C. under a 5% CO2 atmosphere.
(§3) MSTO mesothelioma cells and SKVO-3 ovarian cancer cells were injected at a rate of 3×10^6/animal into female CD1 nude mice and animals were randomly divided into two groups (10 animals/group). […] Drug administration was performed three times per week. The mice were weighed three times per week. Once the experiment was complete, the animals were sacrificed via cervical dislocation. The abdominal cavities of all mice were opened to observe and assess ascites formation and abdominal wall tumors.
Series [10] relates to MSTO mesothelioma cells. Nature of the series: Peritoneal MSTO mesothelioma model in CD1 nude mice. In kind it is in vivo, mouse.
Method: as §2, §3
For series [11] the following is noted: absorbed disulfiram in the bloodstream; cited from earlier work.
Series [12] can be described thus: Anticancer activity of disulfiram metabolites (unpublished data). Particulars: unpublished data of the applicant.
The mark [13] stands for this setting: disulfiram 5 mg/kg i.p. + CuGlu 5 mg/kg oral, three times per week, Day 21.
[14] abbreviates: disulfiram 40 μg/animal i.p. + CuGlu oral, as of Day 90.

Where two headings read alike, the source gives them in different places.

On to `[NH2][Pt]([NH2])([Cl])[Cl]` [CDDP, cisplatin], for which, in [1], the “Synergy index CI at ED50, E58” value was 0.385; the “Synergy index CI at ED75, E58” value is on record as 0.355; the “Synergy index CI at ED90, E58” value is recorded as 0.449. In series [2], the IC50 is 9160 nM; the “Synergy index CI at ED50, 2591” value is on record as 0.777; the “Synergy index CI at ED75, 2591” value came to 0.868; the “Synergy index CI at ED90, 2591” value is given as 1.170. For the same molecule, in [3], the IC50 came out at 4590 nM; the “Synergy index CI at ED50, MSTO” value is given as 0.567; the “Synergy index CI at ED75, MSTO” value stood at 0.320; the “Synergy index CI at ED90, MSTO” value worked out at 0.209. Also, the “Synergy index CI at ED50, SKOV-3” value in series [4] (ED50) came out at 0.389. Further, the “Synergy index CI at ED75, SKOV-3” value in [4] (ED75) is 0.346. Also, in [4] (ED90), the “Synergy index CI at ED90, SKOV-3” value was 0.319. Besides, in series [5], the IC50 amounted to 8790 nM; the “Synergy index CI at ED50, Ju77” value is 0.389; the “Synergy index CI at ED75, Ju77” value is on record as 0.346; the “Synergy index CI at ED90, Ju77” value is 0.319. For the same molecule, the IC50 in series [6] (A2780 cells, 3 days incubation, read-out: IC50s (nM), ovarian cancer cells, A2780) was 4590 nM. Besides, in series [6] (cisplatin (CDDP) combined with DS + Cu, ED50, A2780), the “Synergy index CI at ED50, A2780” value is 0.567. Also, the “Synergy index CI at ED75, A2780” value in [6] (cisplatin (CDDP) combined with DS + Cu, ED75, A2780) turned out to be 0.320. Moreover, the “Synergy index CI at ED90, A2780” value in series [6] (cisplatin (CDDP) combined with DS + Cu, ED90, A2780) is on record as 0.209.

Consider `Nc1nc2[nH]cc(CCc3ccc(C(=O)N[C@@H](CCC(=O)O)C(=O)O)cc3)c2c(=O)[nH]1` [PMTX, pemetrexed], for which the IC50 in series [1] (Homo sapiens, 72 h, E58 cells, 3 days incubation, MTT, read-out: IC50s (nM), inhibition of mesothelioma growth, E58) is over 1000 nM. In addition, in series [1], the “Synergy index CI at ED50, E58” value is recorded as 0.383; the “Synergy index CI at ED75, E58” value is given as 0.384; the “Synergy index CI at ED90, E58” value was 0.503. Also, the IC50 in series [2] (Homo sapiens, 72 h) is over 1000 nM. In [2], the “Synergy index CI at ED50, 2591” value was 0.341; the “Synergy index CI at ED75, 2591” value came out at 0.253; the “Synergy index CI at ED90, 2591” value was 0.603. For the same molecule, the IC50 in [3] (Homo sapiens, 72 h) came to 920 nM. For the same molecule, in series [3], the “Synergy index CI at ED50, MSTO” value is on record as 0.399; the “Synergy index CI at ED75, MSTO” value stood at 0.196; the “Synergy index CI at ED90, MSTO” value turned out to be 0.102. In addition, the IC50 in series [5] (Homo sapiens, 72 h) was over 1000 nM. In addition, in [5], the “Synergy index CI at ED50, Ju77” value is given as 0.308; the “Synergy index CI at ED75, Ju77” value is reported as 0.431; the “Synergy index CI at ED90, Ju77” value amounted to 0.603.

Take `CCN(CC)C(=S)SSC(=S)N(CC)CC` [disulfiram]: in series [7] (setting [13]), the “Mean ascites volume per mouse” value is on record as 0 ml per mouse and the “Number of cancer nodules per mouse” value is on record as 0 nodules per mouse. The “Formation of ascites and masses at laparotomy” value in [7] (disulfiram 5 mg/kg i.p. + CuGlu 5 mg/kg oral) is “no formation of ascites or masses was observed”. The “Formation of ascites and masses at laparotomy” value in series [7] (disulfiram 5 mg/kg i.p. + CuGlu 5 mg/kg oral, listed as DS) was “no formation of ascites or tumor nodules”. In addition, in series [7] (disulfiram 5 mg/kg i.p. with oral copper gluconate, S180 tumor-bearing mice), the “Effect on peritoneal metastasis” value was “completely eliminate the animals' peritoneal metastasis”. In addition, the “Body weight compared with control group” value in series [7] (one week after injection of the cells) was “significantly lower than that of mice in the control group”. The Blood concentration entry in [8] is reported as “below the detection limit”. The “Survival rate, ovarian cancer mice” value in [9] (disulfiram 40 μg/animal (2 mg/kg) i.p. + CuGlu 5 mg/kg oral, Day 60) is given as 90%. For the same molecule, the “Cancer nodules / masses, ovarian cancer mice” value in [9] (disulfiram 40 μg/animal i.p. + CuGlu oral, Day 60) was “only a small number of masses had formed”. For the same molecule, in series [9] (disulfiram 40 μg/animal i.p. + CuGlu oral, as of Day 60), the “Ascites, ovarian cancer mice” value is “did not reveal any ascites”. Also, in series [10] (disulfiram 40 μg/animal (2 mg/kg) i.p. + CuGlu 5 mg/kg oral, Day 90), the “Survival rate, mesothelioma mice” value was 60%. Besides, in series [10] (setting [14]), the “Ascites, mesothelioma mice” value is reported as “did not reveal any ascites” and the “Cancer nodules / masses, mesothelioma mice” value was “only a small number of masses had formed”. In [11], the “Half-life of reduction by the glutathione reductase system in red blood cells” value is 4 min.

Take `CCN(CC)C(=S)SC1OC(C(=O)O)C(O)C(O)C1O` (stereo not shown) [glucuronic acid DDC]: in series [12], the Anticancer activity entry was “completely lack any anticancer activity”.

In the case of `CCN(CC)C(=S)SC` [methyl DDC], the Anticancer activity entry in series [12] was “completely lack any anticancer activity”.

Turning to methylated disulfiram, the Anticancer activity entry in series [12] is “completely loses its anticancer activity”.
